Data from patent publication US5578573A, “Viral integrase inhibiting peptides” (priority 1995, dated 1996).
Residues, ends and D or L forms follow the SMILES beside them.

The molecules below were run against T1, HIV integrase (Human immunodeficiency virus type 1 group M subtype B, UniProt P04585) (assay: biochemical). Conditions: not given.
T1 construct: The HIV integrase used in these assays was expressed in E. coli; made in house; host or cells: E. coli
Type: biochemical
Protocol: HIV integrase activity was assayed by site-specific cleavage and integration of a 28 base pair synthetic oligonucleotide substrate representing HIV-1 U5 essentially as described by Vink et al., Nucl. Acids Res. 21:1419-1425 (1993), which is incorporated herein by reference. The HIV integrase used in these assays was expressed in E. coli and purified to near homogeneity.
Briefly, 0.2 pmol 5'-^32 P-oligonucleotide substrate and 2 μM HIV integrase were incubated at 37° C. for 1 hr in 10 μl assay buffer (10 mM MOPS, pH 7.2, 50 mM NaCl, 3 mM MnCl2, 0.05 mM EDTA, 0.1 mM β-mercaptoethanol, 4% glycerol). Control integrase activity was determined in the absence of any peptide. The activity of a peptide to be tested was examined by adding the peptide to the appropriate concentration in a 2 μl volume. Reactions were stopped by addition of 10 μl formamide loading dye (95% formamide, 20 mM EDTA, 0.05% bromophenol blue, 0.05% xylene cyanol) and incubation at 80° C. for 3 min. A 5 μl aliquot of the sample was separated by electrophoresis on a 12% denaturing polyacrylamide gel. Migration was detected by autoradiography and integrase activity was quantified by densitometry. Inhibition of integrase activity by a peptide corresponded with the disappearance of the cleavage and integration products.

First: N=C(N)NCCC[C@H](NC(=O)[C@H](Cc1c[nH]c2ccccc12)NC(=O)[C@H](Cc1ccccc1)NC(=O)[C@H](CCCCN)NC(=O)[C@H](CS)NC(=O)[C@@H](N)Cc1c[nH]cn1)C(N)=O [compound 3] (H-HCKFWR-NH2)
Second: C[C@H](NC(=O)[C@H](Cc1c[nH]c2ccccc12)NC(=O)[C@H](Cc1ccccc1)NC(=O)[C@H](CCCCN)NC(=O)[C@H](CS)NC(=O)[C@@H](N)Cc1c[nH]cn1)C(N)=O [compound 27] (H-HCKFWA-NH2)
The IC50 of the first is 26-fold lower: 8 µM for the first, 210 µM for the second.

Going from `CC[C@H](C)[C@H](NC(=O)[C@H](Cc1c[nH]c2ccccc12)NC(=O)[C@H](Cc1ccccc1)NC(=O)[C@H](CCCCN)NC(=O)[C@H](CS)NC(=O)[C@@H](N)Cc1c[nH]cn1)C(N)=O` [compound 11] (H-HCKFWI-NH2) to `C[C@H](NC(=O)[C@H](Cc1ccccc1)NC(=O)[C@H](CCCCN)NC(=O)[C@H](CS)NC(=O)[C@@H](N)Cc1c[nH]cn1)C(=O)N[C@@H](Cc1c[nH]c2ccccc12)C(N)=O` [compound 26] (H-HCKFAW-NH2), the IC50 rises from 4 µM to 150 µM (38-fold).

Going from `NCCCC[C@H](NC(=O)[C@H](CS)NC(=O)[C@@H](N)Cc1c[nH]cn1)C(=O)N[C@@H](Cc1ccccc1)C(=O)N[C@@H](Cc1c[nH]c2ccccc12)C(=O)N[C@@H](Cc1ccccc1)C(N)=O` [compound 15] (H-HCKFWF-NH2) to `C[C@H](NC(=O)[C@@H](N)Cc1c[nH]cn1)C(=O)N[C@@H](CCCCN)C(=O)N[C@@H](Cc1ccccc1)C(=O)N[C@@H](Cc1c[nH]c2ccccc12)C(=O)N[C@@H](Cc1c[nH]c2ccccc12)C(N)=O` [compound 23] (H-HAKFWW-NH2), the IC50 rises from 5 µM to 30 µM (6-fold).

First: NCCCC[C@H](NC(=O)[C@H](CS)NC(=O)[C@@H](N)Cc1cnc[nH]1)C(=O)N[C@@H](Cc1ccccc1)C(=O)N[C@@H](Cc1c[nH]c2ccccc12)C(=O)N[C@@H](Cc1c[nH]c2ccccc12)C(N)=O [compound 19] (H-HCKFWW-NH2)
Second: C[C@H](N)C(=O)N[C@@H](CS)C(=O)N[C@@H](CCCCN)C(=O)N[C@@H](Cc1ccccc1)C(=O)N[C@@H](Cc1c[nH]c2ccccc12)C(=O)N[C@@H](Cc1c[nH]c2ccccc12)C(N)=O [compound 22] (H-ACKFWW-NH2)
The IC50 of the first is 26-fold lower: 2 µM for the first, 51 µM for the second. The first is the more potent here.

First: C[C@H](NC(=O)[C@H](CS)NC(=O)[C@@H](N)Cc1c[nH]cn1)C(=O)N[C@@H](Cc1ccccc1)C(=O)N[C@@H](Cc1c[nH]c2ccccc12)C(=O)N[C@@H](Cc1c[nH]c2ccccc12)C(N)=O [compound 24] (H-HCAFWW-NH2)
Second: C[C@H](NC(=O)[C@H](CCCCN)NC(=O)[C@H](CS)NC(=O)[C@@H](N)Cc1c[nH]cn1)C(=O)N[C@@H](Cc1c[nH]c2ccccc12)C(=O)N[C@@H](Cc1c[nH]c2ccccc12)C(N)=O [compound 25] (H-HCKAWW-NH2)
The IC50 of the first is 6.1-fold higher: 49 µM for the first, 8 µM for the second. The second is the more potent here.

Same assay, conditions: 50 μM peptide; results normalized to His-Cys-Lys-Phe-Trp-Trp-NH2 (SEQ ID NO: 19)

Compared with `C[C@H](NC(=O)[C@H](Cc1c[nH]c2ccccc12)NC(=O)[C@H](Cc1ccccc1)NC(=O)[C@H](CCCCN)NC(=O)[C@H](CS)NC(=O)[C@@H](N)Cc1c[nH]cn1)C(N)=O` [compound 2] (H-HCKFWA-NH2), `C[C@@H](O)[C@H](NC(=O)[C@H](Cc1c[nH]c2ccccc12)NC(=O)[C@H](Cc1ccccc1)NC(=O)[C@H](CCCCN)NC(=O)[C@H](CS)NC(=O)[C@@H](N)Cc1c[nH]cn1)C(N)=O` [compound 18] (H-HCKFWT-NH2) is higher in “% Inhibition of HIV integrase activity” value: 2% for the first, 8% for the second.

Going from `N=C(N)NCCC[C@H](NC(=O)[C@H](Cc1c[nH]c2ccccc12)NC(=O)[C@H](Cc1ccccc1)NC(=O)[C@H](CCCCN)NC(=O)[C@H](CS)NC(=O)[C@@H](N)Cc1c[nH]cn1)C(N)=O` [compound 3] (H-HCKFWR-NH2) to `NCCCC[C@H](NC(=O)[C@H](Cc1c[nH]c2ccccc12)NC(=O)[C@H](Cc1ccccc1)NC(=O)[C@H](CCCCN)NC(=O)[C@H](CS)NC(=O)[C@@H](N)Cc1c[nH]cn1)C(N)=O` [compound 13] (H-HCKFWK-NH2), the “% Inhibition of HIV integrase activity” value falls from 88% to 34%.

First: NCCCC[C@H](NC(=O)[C@H](CS)NC(=O)[C@@H](N)Cc1c[nH]cn1)C(=O)N[C@@H](Cc1ccccc1)C(=O)N[C@@H](Cc1c[nH]c2ccccc12)C(=O)N[C@@H](CC(N)=O)C(N)=O [compound 4] (H-HCKFWN-NH2)
Second: NCCCC[C@H](NC(=O)[C@H](CS)NC(=O)[C@@H](N)Cc1c[nH]cn1)C(=O)N[C@@H](Cc1ccccc1)C(=O)N[C@@H](Cc1c[nH]c2ccccc12)C(=O)N[C@@H](CC(=O)O)C(N)=O [compound 5] (H-HCKFWD-NH2)
The “% Inhibition of HIV integrase activity” value of the first is higher: 30% for the first, 18% for the second.

First: NCCCC[C@H](NC(=O)[C@H](CS)NC(=O)[C@@H](N)Cc1c[nH]cn1)C(=O)N[C@@H](Cc1ccccc1)C(=O)N[C@@H](Cc1c[nH]c2ccccc12)C(=O)N[C@@H](CS)C(N)=O [compound 6] (H-HCKFWC-NH2)
Second: NCCCC[C@H](NC(=O)[C@H](CS)NC(=O)[C@@H](N)Cc1c[nH]cn1)C(=O)N[C@@H](Cc1ccccc1)C(=O)N[C@@H](Cc1c[nH]c2ccccc12)C(=O)N[C@@H](CO)C(N)=O [compound 17] (H-HCKFWS-NH2)
The “% Inhibition of HIV integrase activity” value of the first is lower: 30% for the first, 40% for the second.

Going from `NCCCC[C@H](NC(=O)[C@H](CS)NC(=O)[C@@H](N)Cc1c[nH]cn1)C(=O)N[C@@H](Cc1ccccc1)C(=O)N[C@@H](Cc1c[nH]c2ccccc12)C(=O)N[C@@H](CCC(=O)O)C(N)=O` [compound 7] (H-HCKFWE-NH2) to `NCCCC[C@H](NC(=O)[C@H](CS)NC(=O)[C@@H](N)Cc1c[nH]cn1)C(=O)N[C@@H](Cc1ccccc1)C(=O)N[C@@H](Cc1c[nH]c2ccccc12)C(=O)N[C@@H](CCC(N)=O)C(N)=O` [compound 8] (H-HCKFWQ-NH2), the “% Inhibition of HIV integrase activity” value falls from 28% to 8%.

Going from `NCCCC[C@H](NC(=O)[C@H](CS)NC(=O)[C@@H](N)Cc1c[nH]cn1)C(=O)N[C@@H](Cc1ccccc1)C(=O)N[C@@H](Cc1c[nH]c2ccccc12)C(=O)NCC(N)=O` [compound 9] (H-HCKFWG-NH2) to `CC(C)[C@H](NC(=O)[C@H](Cc1c[nH]c2ccccc12)NC(=O)[C@H](Cc1ccccc1)NC(=O)[C@H](CCCCN)NC(=O)[C@H](CS)NC(=O)[C@@H](N)Cc1c[nH]cn1)C(N)=O` [compound 21] (H-HCKFWV-NH2), the “% Inhibition of HIV integrase activity” value rises from 82% to 85%.

Compared with `NCCCC[C@H](NC(=O)[C@H](CS)NC(=O)[C@@H](N)Cc1c[nH]cn1)C(=O)N[C@@H](Cc1ccccc1)C(=O)N[C@@H](Cc1c[nH]c2ccccc12)C(=O)N[C@@H](Cc1c[nH]cn1)C(N)=O` [compound 10] (H-HCKFWH-NH2), `CC(C)C[C@H](NC(=O)[C@H](Cc1c[nH]c2ccccc12)NC(=O)[C@H](Cc1ccccc1)NC(=O)[C@H](CCCCN)NC(=O)[C@H](CS)NC(=O)[C@@H](N)Cc1c[nH]cn1)C(N)=O` [compound 12] (H-HCKFWL-NH2) is lower in “% Inhibition of HIV integrase activity” value: 72% for the first, 8% for the second.

First: CC[C@H](C)[C@H](NC(=O)[C@H](Cc1c[nH]c2ccccc12)NC(=O)[C@H](Cc1ccccc1)NC(=O)[C@H](CCCCN)NC(=O)[C@H](CS)NC(=O)[C@@H](N)Cc1c[nH]cn1)C(N)=O [compound 11] (H-HCKFWI-NH2)
Second: CSCC[C@H](NC(=O)[C@H](Cc1c[nH]c2ccccc12)NC(=O)[C@H](Cc1ccccc1)NC(=O)[C@H](CCCCN)NC(=O)[C@H](CS)NC(=O)[C@@H](N)Cc1c[nH]cn1)C(N)=O [compound 14] (H-HCKFWM-NH2)
The “% Inhibition of HIV integrase activity” value of the first is higher: 96% for the first, 42% for the second.

Going from `NCCCC[C@H](NC(=O)[C@H](CS)NC(=O)[C@@H](N)Cc1c[nH]cn1)C(=O)N[C@@H](Cc1ccccc1)C(=O)N[C@@H](Cc1c[nH]c2ccccc12)C(=O)N[C@@H](Cc1ccccc1)C(N)=O` [compound 15] (H-HCKFWF-NH2) to `NCCCC[C@H](NC(=O)[C@H](CS)NC(=O)[C@@H](N)Cc1c[nH]cn1)C(=O)N[C@@H](Cc1ccccc1)C(=O)N[C@@H](Cc1c[nH]c2ccccc12)C(=O)N[C@@H](Cc1ccc(O)cc1)C(N)=O` [compound 20] (H-HCKFWY-NH2), the “% Inhibition of HIV integrase activity” value falls from 95% to 75%.

Going from `NCCCC[C@H](NC(=O)[C@H](CS)NC(=O)[C@@H](N)Cc1c[nH]cn1)C(=O)N[C@@H](Cc1ccccc1)C(=O)N[C@@H](Cc1c[nH]c2ccccc12)C(=O)N1CCC[C@H]1C(N)=O` [compound 16] (H-HCKFWP-NH2) to `NCCCC[C@H](NC(=O)[C@H](CS)NC(=O)[C@@H](N)Cc1c[nH]cn1)C(=O)N[C@@H](Cc1ccccc1)C(=O)N[C@@H](Cc1c[nH]c2ccccc12)C(=O)N[C@@H](Cc1c[nH]c2ccccc12)C(N)=O` [compound 19] (H-HCKFWW-NH2), the “% Inhibition of HIV integrase activity” value rises from 45% to 100%.
